From patent US20150105252A1, “SUBSTITUTED PYRAZOLES AS HERBICIDES” (E I DU PONT DE NEMOURS AND COMPANY, priority 2013, published 2015)

Experiments:
[1] = system: oat, wild; assay: Test C postemergence; assay type: in vivo, Avena fatua; settings: for Plant response rating (scale of 0 to 100 where 0 is no effect and 100 is complete control), Oat, Wild: Postemergence, 31 g ai/ha, visually evaluated after 13 to 15 days; for Oat, Wild plant response rating / Plant response rating, Oat, Wild: postemergence; for Oat, Wild plant response rating: 62 g ai/ha, scale 0 to 100
Summary of the method: (§1)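 Visual rating, 0–100 scale (0 no effect, 100 complete control), vs untreated controls after 13–15 d greenhouse. Pre: seeds in loam/sand, treated at sowing. Post: plants in peat-based mix, 1- to 4-leaf (2–18 cm). Solvent + surfactant formulation, non-phytotoxic.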

[2] = system: velvetleaf; assay: Test C preemergence; assay type: in vivo, Abutilon theophrasti; settings: preemergence; for Plant response rating, Velvetleaf: 125 g ai/ha, scale 0 to 100, 0 = no effect, 100 = complete control
Summary of the method: as §1

[3] = system: kochia; assay: Test C postemergence; assay type: in vivo, Kochia scoparia; settings: for Plant response rating (scale of 0 to 100 where 0 is no effect and 100 is complete control), Kochia: Postemergence, 31 g ai/ha, visually evaluated after 13 to 15 days; for Kochia plant response rating / Plant response rating, Kochia: postemergence; for Kochia plant response rating: 62 g ai/ha, scale 0 to 100
Summary of the method: as §1

[4] = system: barnyardgrass; assay: Test A postemergence; assay type: in vivo, Echinochloa crus-galli
Summary of the method: (§2)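 Seeds were sown in a loam soil–sand blend and given a directed soil spray preemergence; postemergence plants at 2–10 cm, one- to two-leaf stage, were sprayed with compound in non-phytotoxic solvent with surfactant. After about 10 days in a greenhouse, injury was visually rated against untreated controls (0 = no effect, 100 = complete control).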

[5] = system: corn; assay: Test A postemergence; assay type: in vivo, Zea mays
Summary of the method: as §2

[6] = system: morningglory; assay: Test A postemergence; assay type: in vivo, Ipomoea spp.
Summary of the method: as §2

[7] = system: crabgrass, large; assay: Test A postemergence; assay type: in vivo, Digitaria sanguinalis
Summary of the method: as §2

[8] = system: ryegrass, Italian; assay: Test C postemergence; assay type: in vivo, Lolium multiflorum; settings: postemergence
Summary of the method: as §1

[9] = system: crabgrass, large; assay: Test C preemergence; assay type: in vivo, Digitaria sanguinalis; settings: preemergence; for Plant response rating, Crabgrass, Large: 125 g ai/ha, scale 0 to 100, 0 = no effect, 100 = complete control
Summary of the method: as §1

[10] = system: soybean; assay: Test C postemergence; assay type: in vivo, Glycine max; settings: postemergence; for Plant response rating, Soybean: 250 g ai/ha, scale 0 to 100 (0 no effect, 100 complete control); for Soybean plant response rating: 125 g ai/ha, scale 0 to 100, 0 no effect, 100 complete control
Summary of the method: as §1

[11] = system: oilseed rape; assay: Test C postemergence; assay type: in vivo, Brassica napus; settings: postemergence; for Oilseed Rape plant response rating: 62 g ai/ha, scale 0 to 100
Summary of the method: as §1

[12] = system: nutsedge, yellow; assay: Test C preemergence; assay type: in vivo, Cyperus esculentus; settings: preemergence; for Plant response rating, Nutsedge, Yellow: 125 g ai/ha, scale 0 to 100, 0 = no effect, 100 = complete control
Summary of the method: as §1

[13] = system: pigweed; assay: Test A postemergence; assay type: in vivo, Amaranthus retroflexus
Summary of the method: as §2

[14] = system: barnyardgrass; assay: Test C preemergence; assay type: in vivo, Echinochloa crus-galli; settings: preemergence; for Plant response rating, Barnyardgrass: 125 g ai/ha, scale 0 to 100, 0 = no effect, 100 = complete control
Summary of the method: as §1

[15] = system: barnyardgrass; assay: Test A preemergence; assay type: in vivo, Echinochloa crus-galli; settings: preemergence
Summary of the method: as §2

[16] = system: morningglory; assay: Test C preemergence; assay type: in vivo, Ipomoea coccinea; settings: preemergence; for Plant response rating, Morningglory: 125 g ai/ha, scale 0 to 100, 0 = no effect, 100 = complete control
Summary of the method: as §1

[17] = 250 g ai/ha, scale 0 to 100 (0 no effect, 100 complete control)
[18] = 125 g ai/ha, scale 0 to 100, 0 no effect, 100 complete control
[19] = 31 g ai/ha, visual rating, scale 0 to 100 (0 no effect, 100 complete control), 13 to 15 days
[20] = 62 g ai/ha, scale 0 to 100 (0 no effect, 100 complete control), 13 to 15 days
[21] = 250 g ai/ha, scale 0 to 100, 0 is no effect, 100 is complete control
[22] = Postemergence, 500 g ai/ha, 0 to 100 scale (0 no effect, 100 complete control)
[23] = postemergence, 125 g ai/ha, about 10 days, visual rating on 0 to 100 scale (0 no effect, 100 complete control)
[24] = 125 g ai/ha, visual injury, 0 to 100 scale, approx. 10 days
[25] = 500 g ai/ha, visual injury after approx. 10 days, 0 to 100 scale (0 no effect, 100 complete control)

For `CCOc1cc(C(=O)NOC(C)C)nn1Cc1ccnc(C(F)(F)F)c1` [Compound 153], the “Plant response rating (scale of 0 to 100 where 0 is no effect and 100 is complete control), Oat, Wild” value [1] was 5, the “Oat, Wild plant response rating” value [1] was 10 and the “Plant response rating, Oat, Wild” value [1, 17] was 20. For the same molecule, the “Plant response rating, Oat, Wild” value [1, 18] was 5, the “Velvetleaf plant response rating” value [2, 19] was 10 and the “Velvetleaf plant response rating” value [2, 20] was 60. For the same molecule, the “Plant response rating, Velvetleaf” value ([2]; 13 to 15 days) was 90, the “Velvetleaf plant response rating” value [2, 21] was 100 and the “Plant response rating (scale of 0 to 100 where 0 is no effect and 100 is complete control), Kochia” value [3] was 50. For the same molecule, the “Kochia plant response rating” value [3] was 70, the “Plant response rating, Kochia” value [3, 17] was 90 and the “Plant response rating, Kochia” value [3, 18] was 85. The “Barnyardgrass plant response rating” value [4, 22] was 100, the “Barnyardgrass plant response rating” value [4, 23] was 100 and the “Corn plant response rating” value [5, 22] was 100. For the same molecule, the “Corn plant response rating” value [5, 23] was 90, the “Morningglory plant response rating” value [6, 22] was 100 and the “Morningglory plant response rating” value [6, 23] was 100. The “Crabgrass, Large plant response rating” value [7, 22] was 100, the “Crabgrass, Large plant response rating” value [7, 23] was 100 and the “Plant response rating, Ryegrass, Italian” value [8, 17] was 5. The “Plant response rating, Ryegrass, Italian” value [8, 18] was 5, the “Crabgrass, Large plant response rating” value [9, 19] was 85 and the “Crabgrass, Large plant response rating” value [9, 20] was 98. For the same molecule, the “Plant response rating, Crabgrass, Large” value ([9]; 13 to 15 days) was 100, the “Crabgrass, Large plant response rating” value [9, 21] was 100 and the “Plant response rating, Soybean” value [10] was 40. The “Soybean plant response rating” value [10] was 35, the “Oilseed Rape plant response rating” value [11] was 25 and the “Plant response rating, Oilseed Rape” value [11, 17] was 45. The “Plant response rating, Oilseed Rape” value [11, 18] was 40, the “Nutsedge, Yellow plant response rating” value [12, 19] was 20 and the “Nutsedge, Yellow plant response rating” value [12, 20] was 75. For the same molecule, the “Plant response rating, Nutsedge, Yellow” value ([12]; 13 to 15 days) was 85, the “Nutsedge, Yellow plant response rating” value [12, 21] was 95 and the “Pigweed plant response rating” value [13, 22] was 100. For the same molecule, the “Pigweed plant response rating” value [13, 23] was 100, the “Barnyardgrass plant response rating” value [14, 19] was 15 and the “Barnyardgrass plant response rating” value [14, 20] was 95. For the same molecule, the “Plant response rating, Barnyardgrass” value ([14]; 13 to 15 days) was 100, the “Barnyardgrass plant response rating” value [14, 21] was 100 and the “Barnyardgrass plant response rating” value [15, 24] was 90. For the same molecule, the “Barnyardgrass plant response rating” value [15, 25] was 100, the “Morningglory plant response rating” value [16, 19] was 30 and the “Morningglory plant response rating” value [16, 20] was 80. The “Plant response rating, Morningglory” value ([16]; 13 to 15 days) was 100 and the “Morningglory plant response rating” value [16, 21] was 100.
With `CCNC(=O)c1cc(CC)n(Cc2cc(C(F)(F)F)nn2C)n1` [Compound 154] the “Plant response rating (scale of 0 to 100 where 0 is no effect and 100 is complete control), Oat, Wild” value [1] was 5, the “Oat, Wild plant response rating” value [1] was 5 and the “Plant response rating, Oat, Wild” value [1, 17] was 25. The “Plant response rating, Oat, Wild” value [1, 18] was 20, the “Velvetleaf plant response rating” value [2, 19] was 10 and the “Velvetleaf plant response rating” value [2, 20] was 40. For the same molecule, the “Plant response rating, Velvetleaf” value ([2]; 13 to 15 days) was 90, the “Velvetleaf plant response rating” value [2, 21] was 100 and the “Plant response rating (scale of 0 to 100 where 0 is no effect and 100 is complete control), Kochia” value [3] was 80. The “Kochia plant response rating” value [3] was 85, the “Plant response rating, Kochia” value [3, 17] was 95 and the “Plant response rating, Kochia” value [3, 18] was 85. The “Barnyardgrass plant response rating” value [4, 22] was 100, the “Barnyardgrass plant response rating” value [4, 23] was 100 and the “Corn plant response rating” value [5, 22] was 100. The “Corn plant response rating” value [5, 23] was 40, the “Morningglory plant response rating” value [6, 22] was 100 and the “Morningglory plant response rating” value [6, 23] was 100. The “Crabgrass, Large plant response rating” value [7, 22] was 100, the “Crabgrass, Large plant response rating” value [7, 23] was 100 and the “Plant response rating, Ryegrass, Italian” value [8, 17] was 5. The “Plant response rating, Ryegrass, Italian” value [8, 18] was 0, the “Crabgrass, Large plant response rating” value [9, 19] was 100 and the “Crabgrass, Large plant response rating” value [9, 20] was 100. For the same molecule, the “Plant response rating, Crabgrass, Large” value ([9]; 13 to 15 days) was 100, the “Crabgrass, Large plant response rating” value [9, 21] was 100 and the “Plant response rating, Soybean” value [10] was 90. The “Soybean plant response rating” value [10] was 85, the “Oilseed Rape plant response rating” value [11] was 45 and the “Plant response rating, Oilseed Rape” value [11, 17] was 70. For the same molecule, the “Plant response rating, Oilseed Rape” value [11, 18] was 60, the “Nutsedge, Yellow plant response rating” value [12, 19] was 0 and the “Nutsedge, Yellow plant response rating” value [12, 20] was 15. The “Plant response rating, Nutsedge, Yellow” value ([12]; 13 to 15 days) was 35, the “Nutsedge, Yellow plant response rating” value [12, 21] was 60 and the “Pigweed plant response rating” value [13, 22] was 100. For the same molecule, the “Pigweed plant response rating” value [13, 23] was 100, the “Barnyardgrass plant response rating” value [14, 19] was 55 and the “Barnyardgrass plant response rating” value [14, 20] was 95. The “Plant response rating, Barnyardgrass” value ([14]; 13 to 15 days) was 100, the “Barnyardgrass plant response rating” value [14, 21] was 100 and the “Barnyardgrass plant response rating” value [15, 24] was 90. For the same molecule, the “Barnyardgrass plant response rating” value [15, 25] was 100, the “Morningglory plant response rating” value [16, 19] was 35 and the “Morningglory plant response rating” value [16, 20] was 90. For the same molecule, the “Plant response rating, Morningglory” value ([16]; 13 to 15 days) was 100 and the “Morningglory plant response rating” value [16, 21] was 100.
